# Measured values published in patent publication US9493396B2, “Substituted naphthalene compounds as calcium sensing receptor modulators” (LUPIN ATLANTIS HOLDINGS SA, priority 2013, dated 2016).
# pEC50: −log10 of the molar value. Structures can show the parent of a compound that is named as a salt.
# Target: T1, Calcium sensing receptor (hCaSR) (Homo sapiens, UniProt P41180)
# T1 construct: expressed in transfected cells; host or cells: HEK293 (stably transfected)
# T1 sequence (P41180 20-1078): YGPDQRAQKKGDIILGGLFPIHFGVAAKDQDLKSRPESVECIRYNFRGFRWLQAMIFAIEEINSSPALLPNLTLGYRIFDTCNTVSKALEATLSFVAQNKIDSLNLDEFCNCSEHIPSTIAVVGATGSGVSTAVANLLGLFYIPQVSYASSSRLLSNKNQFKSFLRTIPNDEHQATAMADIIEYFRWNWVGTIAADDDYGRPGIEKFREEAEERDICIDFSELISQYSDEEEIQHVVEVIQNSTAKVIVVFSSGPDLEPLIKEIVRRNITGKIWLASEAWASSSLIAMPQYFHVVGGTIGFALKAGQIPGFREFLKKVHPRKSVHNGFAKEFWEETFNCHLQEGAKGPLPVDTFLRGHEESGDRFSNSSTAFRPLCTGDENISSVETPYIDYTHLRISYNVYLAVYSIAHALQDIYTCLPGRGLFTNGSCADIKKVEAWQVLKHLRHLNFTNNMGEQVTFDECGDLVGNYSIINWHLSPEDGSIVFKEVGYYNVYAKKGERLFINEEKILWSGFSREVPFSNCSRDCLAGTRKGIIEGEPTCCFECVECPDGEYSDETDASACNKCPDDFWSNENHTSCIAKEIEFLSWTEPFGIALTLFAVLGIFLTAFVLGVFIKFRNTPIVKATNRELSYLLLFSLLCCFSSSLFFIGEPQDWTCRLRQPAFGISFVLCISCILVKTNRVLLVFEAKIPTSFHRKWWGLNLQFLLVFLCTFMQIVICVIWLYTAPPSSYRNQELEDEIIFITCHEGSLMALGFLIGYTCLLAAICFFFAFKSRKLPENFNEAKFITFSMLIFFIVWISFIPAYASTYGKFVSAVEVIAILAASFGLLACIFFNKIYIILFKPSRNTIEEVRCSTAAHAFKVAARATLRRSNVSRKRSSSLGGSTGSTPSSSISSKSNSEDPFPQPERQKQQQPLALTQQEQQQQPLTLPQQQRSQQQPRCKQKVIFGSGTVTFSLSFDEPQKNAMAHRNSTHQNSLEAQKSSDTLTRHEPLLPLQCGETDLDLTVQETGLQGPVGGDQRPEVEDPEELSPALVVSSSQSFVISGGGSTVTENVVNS
# Assay: In-vitro assay of calcimimetics through modulation of calcium sensing receptor (intracellular calcium increase, FLIPR)
# Assay type: cell-based
# Settings: stably transfected HEK293 cells expressing hCaSR; Fluo4NW dye; 0.3 mM CaCl2; 8-point assay; read-out: EC50 in range
# Procedure: In-Vitro Assay Method of Calcimimetics Through Modulation of Calcium Sensing Receptor (CaSR): The ability of the compounds to modulate Calcium sensing receptor is determined by measuring an increase in intracellular calcium [Ca^2+]i. Stably transfected HEK293 cells expressing hCaSR_pTriEx-3 hygro vector are developed. Cells are grown overnight on a 96-well plate to 80% confluency in Ham's F12 containing 20% FBS at 37° C., 5% CO2. Subsequently, cells are washed extensively with 20 mM HEPES buffer containing 126 mM […], 1 mM MgCl2 and 4 mM KCl to remove serum components that might interfere with the assay. Cells are loaded with calcium sensing Fluo4NW dye in HEPES base buffer containing 0.1% BSA and 1 mg/ml glucose for 30 minutes to measure changes in intracellular calcium. The activities of the compounds are measured in FLIPR using 0.3 mM CaCl2 in 20 mM HEPES base buffer. The effectiveness of the compound to modulate receptor activity is determined by calculating the EC50 responses for that compound in an 8-point assay and plotted using GraphPad Prism 5.
row,pEC50,SMILES
1,7.30 to 7.70,"CC(N[C@H](C)c1cccc2ccccc12)c1cc(-c2ccc(C(F)(F)F)cc2)c2ccccc2c1 (single isomer, unassigned) [Example 9a, hydrochloride]"
2,> 7.70,"COc1cccc([C@@H](C)NC(C)c2cc(-c3ccc(C)c(CCC(=O)O)c3)c3ccccc3c2)c1 (stereo partly drawn) [Example 137, 3-(5-(3-(1-(((R)-1-(3-Methoxyphenyl)ethyl)amino)ethyl)naphthalen-1-yl)-2-methylphenyl) propanoic acid hydrochloride]"
3,> 7.70,"CCOc1cccc([C@@H](C)NC(C)c2cc(-c3ccc(F)c(CCC(=O)O)c3)c3ccccc3c2)c1 (stereo partly drawn) [Example 142, 3-(5-(3-(1-(((R)-1-(3-Ethoxyphenyl)ethyl)amino)ethyl)naphthalen-1-yl)-2-fluorophenyl) propanoic acid hydrochloride]"
4,6.40 to 7.30,"CCC(N[C@H](C)c1cccc(OC)c1)c1cc(-c2cc(F)cc(CCC(=O)O)c2)c2ccccc2c1 (stereo partly drawn) [Example 148, 3-(3-Fluoro-5-(3-(1-(((R)-1-(3-methoxyphenyl)ethyl)amino)propyl)naphthalen-1-yl)phenyl)propanoic acid hydrochloride]"
5,> 7.70,"COc1cccc([C@@H](C)NCc2cc(-c3cccc(C(=O)O)c3)c3ccccc3c2)c1 [Example 108, (R)-3-(3-(((1-(3-Methoxyphenyl)ethyl)amino)methyl)naphthalen-1-yl)benzoic acid hydrochloride]"
6,6.40 to 7.30,"COc1cc([C@@H](C)NCc2cc(-c3ccc(F)c(C(=O)O)c3)c3ccccc3c2)ccc1F [Example 96, (R)-2-Fluoro-5-(3-(((1-(4-fluoro-3-methoxyphenyl)ethyl)amino)methyl)naphthalen-1-yl)benzoic acid hydrochloride]"
7,> 7.70,"CCOc1cccc([C@@H](C)NC(C)c2cc(-c3ccc(C(F)(F)F)cc3)c3ccccc3c2)c1 (stereo partly drawn) [Example 12, (1R)-1-(3-Ethoxyphenyl)-N-(1-(4-(4-(trifluoromethyl)phenyl)naphthalen-2-yl)ethyl)ethanamine hydrochloride]"
8,6.40 to 7.30,"COc1cccc([C@@H](C)NC(C)c2cc(-c3cc(F)cc(OC(C)(C)C(=O)O)c3)c3ccccc3c2)c1 (stereo partly drawn) [Example 151, 2-(3-Fluoro-5-(3-(1-(((R)-1-(3-methoxyphenyl)ethyl)amino)ethyl)naphthalen-1-yl)phenoxy)-2-methylpropanoic acid hydrochloride]"
9,6.40 to 7.30,"COc1cccc([C@@H](C)NC(C)c2cc(-c3ccc(C(=O)O)c(Cl)c3)c3ccccc3c2)c1 (stereo partly drawn) [Example 121, 2-Chloro-4-(3-(1-(((R)-1-(3-methoxyphenyl)ethyl)amino)ethyl)naphthalen-1-yl)benzoic acid hydrochloride]"
10,7.30 to 7.70,"Cc1ccc(-c2cc(CN[C@H](C)c3cccc4ccccc34)cc3ccccc23)cc1C(=O)O [Example 89, (R)-2-Methyl-5-(3-(((1-(naphthalen-1-yl)ethyl)amino)methyl)naphthalen-1-yl) benzoic acid]"
11,> 7.70,"CCOc1cccc([C@@H](C)NC(C)c2cc(-c3ccc(F)c(C(=O)O)c3)c3ccccc3c2)c1 (stereo partly drawn) [Example 126, 5-(3-(1-(((R)-1-(3-Ethoxyphenyl)ethyl)amino)ethyl)naphthalen-1-yl)-2-fluorobenzoic acid hydrochloride]"
12,> 7.70,"CCC(N[C@H](C)c1cccc(OC)c1)c1cc(-c2ccc(C(F)(F)F)cc2)c2ccccc2c1 (single isomer, unassigned) [Example 18a, hydrochloride]"
13,6.40 to 7.30,"Cc1ccc(-c2cc(CN[C@H](C)c3cccc(Cl)c3)cc3ccccc23)cc1C(=O)O [Example 94, (R)-5-(3-(((1-(3-Chlorophenyl)ethyl)amino)methyl)naphthalen-1-yl)-2-methylbenzoic acid hydrochloride]"
14,6.40 to 7.30,"COCCOc1cccc([C@@H](C)NCc2cc(-c3ccc(F)c(C(=O)O)c3)c3ccccc3c2)c1 [Example 113, (R)-2-Fluoro-5-(3-(((1-(3-(2-methoxyethoxy)phenyl)ethyl)amino)methyl)naphthalen-1-yl) benzoic acid hydrochloride]"
